Assay results reported in article PMC9101838, “Novel CFTR Activator Cact-3 Ameliorates Ocular Surface Dysfunctions in Scopolamine-Induced Dry Eye Mice” (International Journal of Molecular Sciences, 2022).

Biological target: T1, Cystic fibrosis transmembrane conductance regulator (CFTR) (Homo sapiens, UniProt P13569)
T1 construct: human WT-CFTR
Test: apical membrane current in FRT cells expressing human WT-CFTR; whole-cell patch clamp in CHO-K1 cells; no change in cAMP
Assay type: cell-based

T1 sequence (P13569 whole entry): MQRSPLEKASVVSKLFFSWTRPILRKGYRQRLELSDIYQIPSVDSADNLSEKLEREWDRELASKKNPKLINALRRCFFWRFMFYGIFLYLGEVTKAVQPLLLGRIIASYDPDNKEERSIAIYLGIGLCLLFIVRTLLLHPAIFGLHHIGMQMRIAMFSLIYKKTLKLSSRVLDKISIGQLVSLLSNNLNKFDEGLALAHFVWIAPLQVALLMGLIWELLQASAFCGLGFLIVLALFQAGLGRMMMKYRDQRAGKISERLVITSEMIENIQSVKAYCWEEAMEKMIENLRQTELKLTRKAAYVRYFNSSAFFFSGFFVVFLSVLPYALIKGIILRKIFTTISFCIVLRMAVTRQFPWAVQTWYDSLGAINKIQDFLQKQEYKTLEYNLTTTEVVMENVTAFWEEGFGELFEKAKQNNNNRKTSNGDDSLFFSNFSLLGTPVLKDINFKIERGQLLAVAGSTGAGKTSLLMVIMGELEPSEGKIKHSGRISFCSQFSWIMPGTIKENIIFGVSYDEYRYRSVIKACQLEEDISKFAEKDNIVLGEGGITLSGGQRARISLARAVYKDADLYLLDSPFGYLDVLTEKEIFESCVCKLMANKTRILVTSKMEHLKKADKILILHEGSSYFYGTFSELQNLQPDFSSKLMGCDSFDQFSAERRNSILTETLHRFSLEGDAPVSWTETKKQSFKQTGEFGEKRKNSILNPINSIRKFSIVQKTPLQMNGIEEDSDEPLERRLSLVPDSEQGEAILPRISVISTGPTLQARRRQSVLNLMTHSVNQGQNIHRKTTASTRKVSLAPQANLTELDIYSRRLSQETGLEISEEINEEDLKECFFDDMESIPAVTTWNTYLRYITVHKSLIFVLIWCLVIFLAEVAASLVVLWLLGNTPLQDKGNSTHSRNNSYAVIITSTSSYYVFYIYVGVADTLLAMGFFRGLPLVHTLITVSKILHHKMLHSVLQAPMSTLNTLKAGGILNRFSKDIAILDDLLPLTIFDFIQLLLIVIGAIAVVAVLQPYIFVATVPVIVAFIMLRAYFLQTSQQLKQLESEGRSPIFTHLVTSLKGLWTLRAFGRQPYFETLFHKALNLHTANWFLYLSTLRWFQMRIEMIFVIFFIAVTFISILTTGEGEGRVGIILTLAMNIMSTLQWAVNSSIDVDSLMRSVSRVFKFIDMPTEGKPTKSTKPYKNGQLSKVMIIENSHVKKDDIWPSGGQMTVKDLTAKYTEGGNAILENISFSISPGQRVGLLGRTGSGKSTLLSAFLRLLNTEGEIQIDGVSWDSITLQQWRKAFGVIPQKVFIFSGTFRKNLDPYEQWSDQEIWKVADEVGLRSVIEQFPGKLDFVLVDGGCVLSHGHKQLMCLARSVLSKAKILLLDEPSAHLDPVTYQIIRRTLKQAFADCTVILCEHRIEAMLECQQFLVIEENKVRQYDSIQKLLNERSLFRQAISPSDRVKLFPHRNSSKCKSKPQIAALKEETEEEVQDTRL

CCOc1ccc(NC(=O)c2cc3nccc(-c4ccc(OC)c(OC)c4)n3n2)cc1 [Cact-3, 7-(3,4-dimethoxyphenyl)-N-(4-ethoxyphenyl)pyrazolo [1,5-α]pyrimidine-2-carboxamide]
EC50: 255 nM
